Experimental findings from patent US20230339889A1, “DERIVATIVES OF 2-OXO-N-(4-(PYRIMIDIN-4-YLOXY/THIO)PHENYL)-1,2-DIHYDROPYRIDINE-3-CARBOXAMIDE FOR USE AS PROTEIN KINASE INHIBITORS FOR THERAPY” (AUCENTRA THERAPEUTICS PTY LTD, priority 2020, published 2023) are described below.

The test system of assay [1] is MDA-MB-231. Put plainly: Proliferation assay (resazurin, solid tumour cell line). The assay is classed as cell-based. The following applies: Homo sapiens; MDA-MB-231 cells. The text has this: (§1) Compounds from Example 1 were subjected to standard resazurin and MTT assays on solid tumour and leukaemia cancer cell lines, respectively, as previously reported (Wang S et al., J Med Chem 47:1662-1675, 2004 and Diab S et al., CheMedChem 9:962-972, 2014).
For orientation: The colour change of resazurin is a common sign of viable cells or microbes.

The test system of assay [2] is MV4-11. Put plainly: Proliferation assay (MTT, leukaemia cancer cell line). The assay is classed as cell-based. The following applies: Homo sapiens; 1 µM compound, MV4-11 cells.
Description: as §1

For assay [3], the target named is T1, MET (Homo sapiens, UniProt P08581).
T1 construct: purchased Eurofins Discovery (Kinase Profiler service)
Put plainly: Filter-binding radiometric kinase activity assay (KinaseProfiler, Eurofins). The assay is classed as biochemical. Particulars: 1 µM compound; read-out: % Residual enzymatic activity at 1 µM MET.

In assay [4] the target is T2, TYRO3 (Homo sapiens, UniProt Q06418).
T2 construct: purchased Eurofins Discovery (Kinase Profiler service)
T2 sequence (Q06418 41-890): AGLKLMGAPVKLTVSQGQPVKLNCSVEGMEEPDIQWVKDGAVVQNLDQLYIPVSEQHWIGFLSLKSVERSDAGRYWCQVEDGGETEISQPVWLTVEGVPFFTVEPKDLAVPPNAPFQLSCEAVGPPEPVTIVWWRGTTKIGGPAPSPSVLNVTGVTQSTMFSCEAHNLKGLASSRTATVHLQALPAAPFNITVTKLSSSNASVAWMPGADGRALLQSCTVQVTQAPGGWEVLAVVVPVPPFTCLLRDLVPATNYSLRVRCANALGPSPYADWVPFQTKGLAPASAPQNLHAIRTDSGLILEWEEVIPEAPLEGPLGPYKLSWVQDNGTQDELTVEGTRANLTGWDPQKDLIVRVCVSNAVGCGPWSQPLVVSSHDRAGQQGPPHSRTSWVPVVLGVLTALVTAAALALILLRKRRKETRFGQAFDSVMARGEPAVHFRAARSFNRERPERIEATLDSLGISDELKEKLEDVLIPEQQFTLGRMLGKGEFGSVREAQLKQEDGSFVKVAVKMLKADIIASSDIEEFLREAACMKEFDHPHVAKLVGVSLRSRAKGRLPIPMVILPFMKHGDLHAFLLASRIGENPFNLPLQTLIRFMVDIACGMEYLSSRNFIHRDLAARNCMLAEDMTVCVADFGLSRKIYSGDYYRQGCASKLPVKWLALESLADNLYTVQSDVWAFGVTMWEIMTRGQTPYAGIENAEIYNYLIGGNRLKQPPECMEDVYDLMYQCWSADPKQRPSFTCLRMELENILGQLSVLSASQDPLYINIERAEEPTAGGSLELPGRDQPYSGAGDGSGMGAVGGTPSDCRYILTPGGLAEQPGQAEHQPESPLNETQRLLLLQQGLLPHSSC
The assay is described as above. The class given is biochemical. Particulars: 1 µM compound; read-out: % Residual enzymatic activity at 1 µM TYRO3.

The target of assay [5] is T3, AXL (Homo sapiens, UniProt P30530).
T3 construct: purchased Eurofins Discovery (Kinase Profiler service)
T3 sequence (P30530 26-894): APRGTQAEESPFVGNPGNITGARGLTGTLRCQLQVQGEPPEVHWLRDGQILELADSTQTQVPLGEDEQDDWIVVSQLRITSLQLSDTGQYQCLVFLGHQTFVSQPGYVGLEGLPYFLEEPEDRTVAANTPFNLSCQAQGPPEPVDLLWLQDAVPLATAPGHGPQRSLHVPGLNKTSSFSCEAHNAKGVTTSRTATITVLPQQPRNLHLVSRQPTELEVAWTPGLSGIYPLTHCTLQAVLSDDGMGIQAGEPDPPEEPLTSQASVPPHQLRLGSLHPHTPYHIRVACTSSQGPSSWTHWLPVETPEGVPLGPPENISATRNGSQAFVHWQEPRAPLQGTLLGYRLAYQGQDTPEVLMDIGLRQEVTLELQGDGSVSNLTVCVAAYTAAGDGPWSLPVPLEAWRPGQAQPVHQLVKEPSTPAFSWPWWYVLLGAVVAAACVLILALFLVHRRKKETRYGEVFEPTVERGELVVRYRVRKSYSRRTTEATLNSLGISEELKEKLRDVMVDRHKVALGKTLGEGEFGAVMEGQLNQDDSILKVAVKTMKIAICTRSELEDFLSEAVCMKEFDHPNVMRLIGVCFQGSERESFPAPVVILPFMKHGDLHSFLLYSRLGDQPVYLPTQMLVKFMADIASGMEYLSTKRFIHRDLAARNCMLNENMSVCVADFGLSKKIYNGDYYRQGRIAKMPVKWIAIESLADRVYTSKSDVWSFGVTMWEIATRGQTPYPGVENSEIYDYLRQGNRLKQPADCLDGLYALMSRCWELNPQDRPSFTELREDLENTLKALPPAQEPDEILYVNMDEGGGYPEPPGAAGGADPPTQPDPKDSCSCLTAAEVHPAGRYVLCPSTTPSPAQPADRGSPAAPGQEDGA
Described as above. The following applies: 1 µM compound; read-out: % Residual enzymatic activity at 1 µM AXL. The class given is biochemical.

The subject of assay [6] is FLT3-ITD. The assay can be described thus: ADP Glo Kinase assay. The class given is biochemical. Particulars: 1 µM compound. As to the method:
(§2) Inhibition of CDKs and FLT3 were determined using ADP Glo Kinase assays, as previously described in International Patent Publication No WO 2017/020065.

The target in assay [7] is CDK4D1 (Homo sapiens, UniProt P11802). Put plainly: ADP Glo Kinase assay. The assay is classed as biochemical. The following applies: 1 µM compound; read-out: % Residual enzymatic activity at 1 µM CDK4D1. As to the method: as §2
On the technique in general: ADP-Glo first removes unused ATP, then detects ADP through luciferase.

The target of assay [8] is CDK2E (Homo sapiens, UniProt P24941). Put plainly: ADP Glo Kinase assay. The following applies: 1 µM compound; read-out: % Residual enzymatic activity at 1 µM CDK2E. The assay is classed as biochemical. As to the method: as §2

Chain of CDK4D1 (P11802 whole entry): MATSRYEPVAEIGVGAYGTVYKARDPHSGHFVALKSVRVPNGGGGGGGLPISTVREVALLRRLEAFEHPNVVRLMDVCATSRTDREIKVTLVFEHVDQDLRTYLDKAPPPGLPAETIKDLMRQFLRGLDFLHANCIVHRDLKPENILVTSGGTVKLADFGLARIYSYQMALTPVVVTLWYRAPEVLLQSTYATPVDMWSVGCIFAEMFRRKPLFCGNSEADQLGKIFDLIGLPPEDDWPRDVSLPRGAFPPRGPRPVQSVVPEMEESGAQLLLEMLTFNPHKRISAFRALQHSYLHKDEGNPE
Chain of CDK4D1 (P24385 whole entry partner): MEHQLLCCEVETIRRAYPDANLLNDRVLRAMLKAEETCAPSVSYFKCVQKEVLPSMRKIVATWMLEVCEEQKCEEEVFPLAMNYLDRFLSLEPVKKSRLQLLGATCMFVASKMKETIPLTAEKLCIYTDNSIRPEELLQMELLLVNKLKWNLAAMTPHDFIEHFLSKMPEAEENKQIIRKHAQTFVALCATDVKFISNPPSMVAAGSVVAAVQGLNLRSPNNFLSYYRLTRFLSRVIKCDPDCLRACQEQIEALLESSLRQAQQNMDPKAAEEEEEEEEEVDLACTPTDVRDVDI
T1 sequence (P08581 25-1390): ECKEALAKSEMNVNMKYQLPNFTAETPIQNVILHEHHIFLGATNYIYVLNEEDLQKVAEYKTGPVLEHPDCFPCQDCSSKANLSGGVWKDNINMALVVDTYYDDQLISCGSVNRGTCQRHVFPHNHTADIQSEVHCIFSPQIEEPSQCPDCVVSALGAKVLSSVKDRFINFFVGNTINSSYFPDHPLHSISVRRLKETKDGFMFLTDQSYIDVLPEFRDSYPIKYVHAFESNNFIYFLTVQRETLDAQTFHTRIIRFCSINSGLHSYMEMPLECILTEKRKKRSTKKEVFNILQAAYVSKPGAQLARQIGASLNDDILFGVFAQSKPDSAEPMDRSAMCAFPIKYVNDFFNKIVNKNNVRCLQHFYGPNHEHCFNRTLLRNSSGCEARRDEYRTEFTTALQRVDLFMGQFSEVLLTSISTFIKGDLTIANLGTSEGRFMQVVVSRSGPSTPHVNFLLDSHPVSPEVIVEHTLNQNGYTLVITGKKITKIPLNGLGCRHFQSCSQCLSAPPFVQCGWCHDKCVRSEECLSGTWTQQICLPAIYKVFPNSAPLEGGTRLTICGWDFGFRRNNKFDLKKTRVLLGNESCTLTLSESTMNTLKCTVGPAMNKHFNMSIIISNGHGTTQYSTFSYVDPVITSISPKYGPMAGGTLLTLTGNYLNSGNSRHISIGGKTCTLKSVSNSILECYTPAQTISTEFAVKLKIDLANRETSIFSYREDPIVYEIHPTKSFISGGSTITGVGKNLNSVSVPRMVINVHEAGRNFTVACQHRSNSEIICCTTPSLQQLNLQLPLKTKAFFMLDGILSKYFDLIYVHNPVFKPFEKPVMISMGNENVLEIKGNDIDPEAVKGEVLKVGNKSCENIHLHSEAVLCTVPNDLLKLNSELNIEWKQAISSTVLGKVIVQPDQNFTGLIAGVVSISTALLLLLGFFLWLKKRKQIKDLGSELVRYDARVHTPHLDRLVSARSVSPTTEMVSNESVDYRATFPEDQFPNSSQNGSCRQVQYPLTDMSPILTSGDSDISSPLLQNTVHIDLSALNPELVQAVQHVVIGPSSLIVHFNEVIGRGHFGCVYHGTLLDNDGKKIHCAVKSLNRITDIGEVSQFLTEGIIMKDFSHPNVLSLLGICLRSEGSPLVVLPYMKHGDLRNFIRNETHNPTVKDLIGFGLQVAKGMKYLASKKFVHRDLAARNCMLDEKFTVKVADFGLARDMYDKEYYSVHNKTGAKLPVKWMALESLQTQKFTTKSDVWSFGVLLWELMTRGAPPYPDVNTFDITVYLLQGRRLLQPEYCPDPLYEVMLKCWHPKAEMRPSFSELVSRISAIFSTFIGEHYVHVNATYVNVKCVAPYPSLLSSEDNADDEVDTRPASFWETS

In the case of `Nc1ncnc(Oc2ccc(NC(=O)c3cccn(-c4ccc(F)cc4)c3=O)cc2)c1F` [Cmpd 6, N-(4-((6-amino-5-fluoropyrimidin-4-yl)oxy)phenyl)-1-(4-fluorophenyl)-2-oxo-1,2-dihydropyridine-3-carboxamide], growth in assay [1] was halved (GI50) at 8.9 µM. Moreover, the activity at 1 µM in assay [2] was 3%. Also, the remaining activity at 1 µM in assay [3] was 8%; in assay [4], 6%; in assay [5], 14%; in assay [7] it was 69%; in assay [8], 89%. Also, the “% Residual enzymatic activity at 1 µM FLT3-ITD” value (“% Residual enzymatic activity” below) in assay [6] came out at 79%.

`Nc1ncnc(Oc2ccc(NC(=O)c3cccn(-c4ccc(F)cc4)c3=O)c(F)c2)c1F` [Cmpd 7, N-(4-((6-amino-5-fluoropyrimidin-4-yl)oxy)-2-fluorophenyl)-1-(4-fluorophenyl)-2-oxo-1,2-dihydropyridine-3-carboxamide]: in assay [1], the GI50 (commonly the concentration that inhibits growth by half) was 2.3 µM. The compound also displayed an activity at 1 µM in assay [2] of 6%. For the same compound, the remaining activity at 1 µM was -6% in assay [3]; 5% in assay [4]; 8% in assay [5]; 72% in assay [7]; 80% in assay [8]. Also, the “% Residual enzymatic activity” value in assay [6] was 40%.

`Nc1ncnc(Oc2ccc(NC(=O)c3cccn(-c4ccc(F)cc4)c3=O)c(F)c2)c1Cl` [Cmpd 5, N-(4-((6-amino-5-chloropyrimidin-4-yl)oxy)-2-fluorophenyl)-1-(4-fluorophenyl)-2-oxo-1,2-dihydropyridine-3-carboxamide] showed a concentration for 50% growth inhibition (GI50) in assay [1] of 0.9 µM. For the same compound, the activity at 1 µM in assay [2] was found to be 6%. In addition, the remaining activity at 1 µM in assay [3] is -5%; in assay [4], 2%; in assay [5], -8%; in assay [7] it was 72%; in assay [8], 92%. In addition, the “% Residual enzymatic activity” value in assay [6] is listed as 43%.

Compound `Nc1ncnc(Oc2ccc(NC(=O)c3cccn(-c4ccc(F)cc4)c3=O)cc2)c1Cl` [Cmpd 4, N-(4-((6-amino-5-chloropyrimidin-4-yl)oxy)phenyl)-1-(4-fluorophenyl)-2-oxo-1,2-dihydropyridine-3-carboxamide] registered a GI50 in assay [1] of 2.7 µM. This compound showed an activity at 1 µM in assay [2] of 6%. Further, the remaining activity at 1 µM in assay [3] is -5%; in assay [4], 2%; in assay [5] it was -1%; in assay [7], 48%; in assay [8], 97%. Moreover, the “% Residual enzymatic activity” value in assay [6] is 33%.

Turning to `Nc1ncnc(Oc2ccc(NC(=O)c3cccn(-c4ccc(F)cc4)c3=O)cc2F)c1F` [Cmpd 1, N-(4-((6-amino-5-fluoropyrimidin-4-yl)oxy)-3-fluorophenyl)-1-(4-fluorophenyl)-2-oxo-1,2-dihydropyridine-3-carboxamide], the GI50 in assay [1] is 1.2 µM. In addition, the activity at 1 µM in assay [2] was 3%. For the same compound, the remaining activity at 1 µM is 0% in assay [3]; -1% in assay [4]; 13% in assay [5]; 40% in assay [7]; 99% in assay [8]. Further, the “% Residual enzymatic activity” value in assay [6] is 50%.

In assay [1], `Nc1ncnc(Oc2ccc(NC(=O)c3cccn(-c4ccc(F)cc4)c3=O)cc2F)c1Cl` [Cmpd 3, N-(4-((6-amino-5-chloropyrimidin-4-yl)oxy)-3-fluorophenyl)-1-(4-fluorophenyl)-2-oxo-1,2-dihydropyridine-3-carboxamide] returned a GI50 of 7.9 µM. This compound also registered an activity at 1 µM in assay [2] of 3%. The remaining activity at 1 µM in assay [3] was -7%; in assay [4] it was 0%; in assay [5] it was 4%; in assay [7] it was 69%; in assay [8] it was 96%. Besides, the “% Residual enzymatic activity” value in assay [6] came out at 49%.
